Source: patent publication US20150224177A1 (priority 2014, published 2015)
Values after ≈ are worked out from the molar mass of the structure shown. Like-named read-outs stand apart in the source and are kept apart here.

Experiments:
[1] = test system: B. pseudomallei strains 1026b and MSHR 305; format: cell-based, Burkholderia pseudomallei
B. pseudomallei isolates = experiment: microbe, parasite or virus in culture; format: cell-based, Burkholderia pseudomallei
Yersinia pestis = experiment: microbe, parasite or virus in culture; format: cell-based; details: for MIC: Yersinia pestis
Bacillus anthracis = format: cell-based
Burkholderia mallei = experiment: microbe, parasite or virus in culture; format: cell-based; details: for MIC: Burkholderia mallei
[2] = read-out: MIC values (limit of detection) for OSCN^− with and without bLF
[3] = read-out: Minimal Inhibitory Concentration

Compound: N#CSO [OSCN^−, hypothiocyanite]
- bacterial counts (limit of detection) through 6 h post inoculation [1]: < 33 CFU/mL
- bactericidal effect, overall result in words [1]: substantial bactericidal effect
- detectable CFUs from T2h to T6h [1]: no detectable CFUs
- growth at T24h [1]: no MSHR 305 growth was detected
- kill curve: evolution of microbial load during time [1]: immediate decrease of microbial load after 2 hours
- reduction at T24h as compared with the untreated controls [1]: 1.5 to 2 log10
- reduction at T24h compared with the untreated control [1]: ~2.5 log10
- reduction of final bacterial concentration at T24h as compared with the untreated controls [1]: at least 1.5 log10
- concentration of OSCN^− alone that inhibited all isolates (B. pseudomallei isolates): less than 63.3 μg/mL
- inhibition of growth, overall result in words (B. pseudomallei isolates): effective in vitro to inhibit the growth
- MIC (B. pseudomallei isolates; Burkholderia pseudomallei, NCTC13392, read-out: Minimal Inhibitory Concentration): 48.7 to 61.2 µg/mL (≈ 649 to 815 µM)
- inhibition of growth, result in words (Yersinia pestis): very effective against both strains tested
- MIC (Yersinia pestis; [2]): ≤ 30.3 µg/mL
- MIC (Yersinia pestis; [3]): ≤ 30.3 µg/mL
- inhibition of growth, result in words (Bacillus anthracis): MICs at or below the detection limit
- inhibition of growth, result in words (Burkholderia mallei): very effective against both strains tested
- MIC (Burkholderia mallei; [2]): ≤ 25.9 µg/mL
- MIC (Burkholderia mallei; [3]): ≤ 25.9 µg/mL
